The source of these data is patent US11690837B2, “Methods of improving cell-based therapy” (THE REGENTS OF THE UNIVERSITY OF CALIFORNIA, priority 2014, dated 2023).

One data set addresses T1, sEH (Homo sapiens, UniProt P34913).
T1 sequence (P34913 1-555): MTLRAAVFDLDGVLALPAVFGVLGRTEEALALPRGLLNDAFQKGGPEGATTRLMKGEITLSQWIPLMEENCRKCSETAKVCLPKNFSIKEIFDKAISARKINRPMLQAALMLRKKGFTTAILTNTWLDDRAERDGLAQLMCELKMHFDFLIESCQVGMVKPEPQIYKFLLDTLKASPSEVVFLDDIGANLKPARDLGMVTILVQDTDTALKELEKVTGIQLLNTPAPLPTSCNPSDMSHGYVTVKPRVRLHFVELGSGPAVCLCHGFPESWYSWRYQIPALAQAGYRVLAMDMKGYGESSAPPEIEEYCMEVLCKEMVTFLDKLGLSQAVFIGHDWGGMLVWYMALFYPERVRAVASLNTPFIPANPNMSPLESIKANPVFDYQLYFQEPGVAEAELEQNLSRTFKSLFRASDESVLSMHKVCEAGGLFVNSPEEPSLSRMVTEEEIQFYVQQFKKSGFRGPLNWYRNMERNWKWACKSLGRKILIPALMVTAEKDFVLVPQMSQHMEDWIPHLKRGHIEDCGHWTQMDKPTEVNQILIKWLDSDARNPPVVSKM
The data set can be described thus: Testing as sEH inhibitors (method not described). In kind it is biochemical. From the text: (Both the 1- and the 2-admamantyl ureas have been tested and have about the same high activity as an inhibitor of sEH. Thus, isomers of adamantyl dodecyl urea are preferred inhibitors. It is further expected that N, N′-dodecyl-cyclohexyl urea (DCU), and other inhibitors of sEH, and particularly dodecanoic acid ester derivatives of urea, are suitable for use in the methods. Preferred inhibitors include:
U.S. Pat. No. 5,955,496 (the '496 patent) also sets forth a number of sEH inhibitors which can be used in the methods. One category of these inhibitors comprises inhibitors that mimic the substrate for the enzyme. The lipid alkoxides (e.g., the 9-methoxide of stearic acid) are an exemplar of this group of inhibitors.

The format of data set [1] is in vitro ADME. An excerpt:
(Both the 1- and the 2-admamantyl ureas have been tested and have about the same high activity as an inhibitor of sEH. Thus, isomers of adamantyl dodecyl urea are preferred inhibitors. It is further expected that N, N′-dodecyl-cyclohexyl urea (DCU), and other inhibitors of sEH, and particularly dodecanoic acid ester derivatives of urea, are suitable for use in the methods. Preferred inhibitors include: […]

Take `CCCCCCCCCCCCNC(=O)NC12CC3CC(CC(C3)C1)C2` [ADU, N-Adamantyl-N′-dodecyl urea]: on sEH, the “activity as an inhibitor of sEH” value is “particularly high activity”. For the same molecule, in data set [1], the metabolic stability result is on record as “metabolically stable”.
